Test results as given in patent US6632832B1 (Dabur Research Foundation, priority 2002, dated 2003).
≈ marks a conversion by molar mass, not a printed value.

Tests used:
[1] = system: MiaPaCa.2 (pancreas); assay: MTT cytotoxicity assay, 72 hours; type: cell-based, human; conditions: MiaPaCa.2 (Pancreas), 72 h MTT, Table 2
Experimental: (§1) After 72 hours, the assay was terminated and percent cyotoxicities calculated.

[2] = system: U87.MG (glioblastoma); assay: MTT cytotoxicity assay, 72 hours; type: cell-based, human; conditions: U87MG (Glioblastoma), 72 h MTT, Table 2
Experimental: as §1

[3] = system: PA1 (ovary); assay: MTT cytotoxicity assay, 72 hours; type: cell-based, human; conditions: PA-1 (Ovary), 72 h MTT, Table 2
Experimental: as §1

[4] = system: KB (oral); assay: MTT cytotoxicity assay, 72 hours; type: cell-based, human; conditions: KB (Oral), 72 h MTT, Table 2
Experimental: as §1

[5] = system: B16F10 (melanoma); assay: MTT cytotoxicity assay, 72 hours; type: cell-based, human; conditions: B16.F10 (Melanoma), 72 h MTT, Table 2
Experimental: as §1

[6] = system: HBL100 (breast); assay: MTT cytotoxicity assay, 72 hours; type: cell-based, human; conditions: HBL100 (Breast), 72 h MTT, Table 2
Experimental: as §1

[7] = system: PTC (colon); assay: MTT cytotoxicity assay, 72 hours; type: cell-based, human; conditions: PTC (Colon), 72 h MTT, Table 2
Experimental: as §1

[8] = system: L132 (lung); assay: MTT cytotoxicity assay, 72 hours; type: cell-based, human; conditions: L132 (Lung), 72 h MTT, Table 2
Experimental: as §1

[9] = system: MOLT4 (leukemia); assay: MTT cytotoxicity assay, 72 hours; type: cell-based, human; conditions: MOLT-4 (Leukemia), 72 h MTT, Table 2
Experimental: as §1

[10] = system: β-receptor; conditions: preclinical studies; cited from earlier work

Compound	ED50 [1] [µg/mL]	ED50 [2] [µg/mL]	ED50 [3] [µg/mL]	ED50 [4] [µg/mL]	ED50 [5] [µg/mL]	ED50 [6] [µg/mL]	ED50 [7] [µg/mL]	ED50 [8] [µg/mL]	ED50 [9] [µg/mL]	potency for β-blockade relative to carvedilol [10]
COc1ccccc1OCCNC[C@H](O)COc1cccc2[nH]c3ccccc3c12 (single isomer, unassigned) [S(−) isomer]	33.0 ± 3.9 (≈ 81.2 µM)	18.5 ± 2.1 (≈ 45.5 µM)	13.0 ± 1.3 (≈ 32 µM)	19.0 ± 3.4 (≈ 46.7 µM)	11.4 ± 2.1 (≈ 28 µM)	33.5 ± 4.2 (≈ 82.4 µM)	7.5 ± 0.4 (≈ 18.5 µM)	22.6 ± 3.8 (≈ 55.6 µM)	17.0 ± 2.5 (≈ 41.8 µM)	
COc1cc(O)ccc1OCCNCC(O)COc1cccc2[nH]c3ccccc3c12 (stereo not shown) [4′-hydroxyphenyl metabolite]										approximately 13 times
